Reference: US10722514B2 (FLX Bio, Inc., priority 2017, dated 2020)
Where a name gives a salt, the structure may show the parent alone.

Biological target: T1, recombinant full-length USP7 (Homo sapiens, UniProt Q93009)
T1 construct: A 25 μl reaction volume containing recombinant full-length USP7 (62 pM)
Experiment: USP7-mediated ubiquitin-rhodamine cleavage assay
Type: biochemical
Conditions: recombinant full-length USP7 62 pM; ubiquitin-rhodamine 100 nM; 30-minute incubation with compound, 1 hour reaction at room temperature; read-out: Potency: USP7 IC50
Procedure, shortened: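 After compound and enzyme (62 pM) sat together 30 min at RT, 100 nM fluorogenic ubiquitin-rhodamine substrate was added for 1 h protected from light. Acetic acid quenched the reaction prior to the fluorescence read.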

T1 sequence (Q93009 whole entry): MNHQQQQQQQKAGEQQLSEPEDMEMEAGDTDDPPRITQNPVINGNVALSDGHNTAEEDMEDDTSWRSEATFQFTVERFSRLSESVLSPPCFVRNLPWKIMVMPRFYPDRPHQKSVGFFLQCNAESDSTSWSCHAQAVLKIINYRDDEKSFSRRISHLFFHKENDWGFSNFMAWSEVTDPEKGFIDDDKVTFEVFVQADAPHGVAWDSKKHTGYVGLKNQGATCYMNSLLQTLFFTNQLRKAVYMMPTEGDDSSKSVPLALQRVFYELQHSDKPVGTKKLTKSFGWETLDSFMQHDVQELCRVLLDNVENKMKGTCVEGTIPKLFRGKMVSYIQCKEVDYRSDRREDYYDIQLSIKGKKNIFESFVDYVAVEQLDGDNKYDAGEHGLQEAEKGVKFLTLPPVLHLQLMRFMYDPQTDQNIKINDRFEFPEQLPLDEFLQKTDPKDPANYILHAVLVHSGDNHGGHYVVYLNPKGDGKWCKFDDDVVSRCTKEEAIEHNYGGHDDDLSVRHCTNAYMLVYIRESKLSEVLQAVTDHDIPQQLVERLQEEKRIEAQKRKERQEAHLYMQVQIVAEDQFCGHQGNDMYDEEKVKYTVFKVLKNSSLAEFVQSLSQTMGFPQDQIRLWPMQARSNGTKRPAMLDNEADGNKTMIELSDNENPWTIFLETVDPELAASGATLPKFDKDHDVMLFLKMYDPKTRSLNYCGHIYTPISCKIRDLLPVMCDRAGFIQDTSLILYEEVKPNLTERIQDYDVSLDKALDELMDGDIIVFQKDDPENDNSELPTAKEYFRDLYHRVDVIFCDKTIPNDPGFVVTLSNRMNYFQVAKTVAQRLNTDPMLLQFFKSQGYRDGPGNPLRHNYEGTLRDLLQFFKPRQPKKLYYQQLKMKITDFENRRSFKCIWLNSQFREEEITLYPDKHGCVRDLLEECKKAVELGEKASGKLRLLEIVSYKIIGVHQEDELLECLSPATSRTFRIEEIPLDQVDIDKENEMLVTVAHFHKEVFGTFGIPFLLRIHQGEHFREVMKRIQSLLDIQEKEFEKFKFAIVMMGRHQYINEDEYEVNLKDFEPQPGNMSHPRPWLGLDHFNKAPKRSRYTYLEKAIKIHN

Compound | IC50
Cc1cc(Cl)cc(-c2ccnc3cc(CN4C(=O)C5C(C4=O)C5(C)C)sc23)c1OC1CNCC1(C)F (centres unmarked) [Example 372, 3-[[7-[5-chloro-2-(4-fluoro-4-methyl-pyrrolidin-3-yl)oxy-3-methyl-phenyl]thieno[3,2-b]pyridin-2-yl]methyl]-6,6-dimethyl-3-azabicyclo[3.1.0]hexane-2,4-dione dihydrochloride] | < 1000 nM
Cc1cc(Cl)cc(-c2ncnc3cc(CN4C(=O)C5C(C4=O)C5(C)C)sc23)c1O[C@@H]1CCN(C)C[C@@H]1C (stereo partly drawn) [Example 373, 3-[[4-[5-chloro-2-[[(3S,4R)-1,3-dimethyl-4-piperidyl]oxy]-3-methyl-phenyl]thieno[3,2-d]pyrimidin-6-yl]methyl]-6,6-dimethyl-3-azabicyclo[3.1.0]hexane-2,4-dione dihydrochloride] | < 1000 nM
CCN1CC(Oc2c(C)cc(Cl)cc2-c2ccnc3cc(CN4C(=O)C5C(C4=O)C5(C)C)sc23)C(C)(F)C1 (centres unmarked) [Example 374, 3-[[7-[5-chloro-2-(1-ethyl-4-fluoro-4-methyl-pyrrolidin-3-yl)oxy-3-methyl-phenyl]thieno[3,2-b]pyridin-2-yl]methyl]-6,6-dimethyl-3-azabicyclo[3.1.0]hexane-2,4-dione dihydrochloride] | < 1000 nM
Cc1cc(Cl)cc(-c2ccnc3cc(CN4C(=O)C5C(C4=O)C5(C)C)sc23)c1OC1CN(C)CC1(C)F (centres unmarked) [Example 375, 3-[[7-[5-chloro-2-(4-fluoro-1,4-dimethyl-pyrrolidin-3-yl)oxy-3-methyl-phenyl]thieno[3,2-b]pyridin-2-yl]methyl]-6,6-dimethyl-3-azabicyclo[3.1.0]hexane-2,4-dione dihydrochloride] | < 1000 nM
Cc1cc(Cl)cc(-c2ccnc3cc(CN4C(=O)C5C(C4=O)C5(C)C)sc23)c1O[C@@H]1CCNC[C@@H]1F (stereo partly drawn) [Example 376, 3-[[7-[5-chloro-2-[[(3S,4R)-3-fluoro-4-piperidyl]oxy]-3-methyl-phenyl]thieno[3,2-b]pyridin-2-yl]methyl]-6,6-dimethyl-3-azabicyclo[3.1.0]hexane-2,4-dione; 2,2,2-trifluoroacetic acid] | < 1000 nM
Cc1cc(Cl)cc(-c2ncnc3cc(CN4C(=O)C5C(C4=O)C5(C)C)sc23)c1O[C@@H]1CCNC[C@@H]1F (stereo partly drawn) [Example 377, 3-[[4-[5-chloro-2-[[(3S,4R)-3-fluoro-4-piperidyl]oxy]-3-methyl-phenyl]thieno[3,2-d]pyrimidin-6-yl]methyl]-6,6-dimethyl-3-azabicyclo[3.1.0]hexane-2,4-dione; 2,2,2-trifluoroacetic acid] | < 1000 nM
Cc1cc(Cl)cc(-c2ncnc3cc(CN4C(=O)CC(C)C4=O)sc23)c1O[C@@H]1CNC[C@@H]1F (stereo partly drawn) [Example 378, 1-[[4-[5-chloro-2-[(3R,4S)-4-fluoropyrrolidin-3-yl]oxy-3-methyl-phenyl]thieno[3,2-d]pyrimidin-6-yl]methyl]-3-methyl-pyrrolidine-2,5-dione; 2,2,2-trifluoroacetic acid] | < 1000 nM
Cc1cc(Cl)cc(-c2ncnc3cc(CN4C(=O)C(C)C(C)C4=O)sc23)c1O[C@@H]1CNC[C@@H]1F (stereo partly drawn) [Example 379, 1-[[4-[5-chloro-2-[(3R,4S)-4-fluoropyrrolidin-3-yl]oxy-3-methyl-phenyl]thieno[3,2-d]pyrimidin-6-yl]methyl]-3,4-dimethyl-pyrrolidine-2,5-dione; 2,2,2-trifluoroacetic acid] | < 1000 nM
Cc1cc(Cl)cc(-c2ncnc3cc(CN4C(=O)CC(C)(C)C4=O)sc23)c1O[C@@H]1CNC[C@@H]1F [Example 380, 1-[[4-[5-chloro-2-[(3R,4S)-4-fluoropyrrolidin-3-yl]oxy-3-methyl-phenyl]thieno[3,2-d]pyrimidin-6-yl]methyl]-3,3-dimethyl-pyrrolidine-2,5-dione; 2,2,2-trifluoroacetic acid] | < 1000 nM
CCC1(C)CC(=O)N(Cc2cc3ncnc(-c4cc(Cl)cc(C)c4O[C@@H]4CNC[C@@H]4F)c3s2)C1=O (stereo partly drawn) [Example 381, 1-[[4-[5-chloro-2-[(3R,4S)-4-fluoropyrrolidin-3-yl]oxy-3-methyl-phenyl]thieno[3,2-d]pyrimidin-6-yl]methyl]-3-ethyl-3-methyl-pyrrolidine-2,5-dione; 2,2,2-trifluoroacetic acid] | < 1000 nM
Cc1cc(Cl)cc(-c2ccnc3cc(CN4C(=O)C5C(C4=O)C5(C)C)sc23)c1O[C@@H]1CCNC[C@@H]1F (stereo partly drawn) [Example 382, 3-[[7-[5-chloro-2-[[(3S,4R)-3-fluoro-4-piperidyl]oxy]-3-methyl-phenyl]thieno[3,2-b]pyridin-2-yl]methyl]-6,6-dimethyl-3-azabicyclo[3.1.0]hexane-2,4-dione; 2,2,2-trifluoroacetic acid] | < 1000 nM
Cc1cc(Cl)cc(-c2ccnc3cc(CN4C(=O)C5C(C4=O)C5(C)C)sc23)c1O[C@H]1CCNC[C@@H]1F (stereo partly drawn) [Example 383, 3-[[7-[5-chloro-2-[[(3S,4S)-3-fluoro-4-piperidyl]oxy]-3-methyl-phenyl]thieno[3,2-b]pyridin-2-yl]methyl]-6,6-dimethyl-3-azabicyclo[3.1.0]hexane-2,4-dione; 2,2,2-trifluoroacetic acid] | < 1000 nM
O=C(O)C(F)(F)F.[2H]C1([2H])C(=O)N(Cc2cc3nccc(-c4cc(Cl)cc(C)c4O[C@@H]4CNC[C@@H]4F)c3s2)C(=O)C1([2H])[2H] [Example 384, 1-[[7-[5-chloro-2-[(3R,4S)-4-fluoropyrrolidin-3-yl]oxy-3-methyl-phenyl]thieno[3,2-b]pyridin-2-yl]methyl]-3,3,4,4-tetradeuterio-pyrrolidine-2,5-dione; 2,2,2-trifluoroacetic acid] | < 1000 nM
Cc1cc(Cl)cc(-c2ccnc3cc(Cn4cnc5ccccc5c4=O)sc23)c1O[C@H]1CCCNC1 [Example 385, 3-[[7-[5-chloro-3-methyl-2-[[(3S)-3-piperidyl]oxy]phenyl]thieno[3,2-b]pyridin-2-yl]methyl]quinazolin-4-one; 2,2,2-trifluoroacetic acid] | 1000 to 10000 nM
Cc1cc(Cl)cc(-c2ncnc3cc(CN4C(=O)C5C(C4=O)C5(C)C)sc23)c1OC1CNCC1(C)F (centres unmarked) [Example 386, 3-[[4-[5-chloro-2-(4-fluoro-4-methyl-pyrrolidin-3-yl)oxy-3-methyl-phenyl]thieno[3,2-d]pyrimidin-6-yl]methyl]-6,6-dimethyl-3-azabicyclo[3.1.0]hexane-2,4-dione dihydrochloride] | < 1000 nM
Cn1nc2c(c1C1Cc3cc(Cl)cc(-c4ccnc5cc(CN6C(=O)C7C(C6=O)C7(C)C)sc45)c3O1)CNCC2 [Example 387, 3-[[7-[(2R)-5-chloro-2-(2-methyl-4,5,6,7-tetrahydropyraozlo[4,3-c]pyridin-3-yl)-2,3-dihydrobenzofuran-7-yl]thieno[3,2-b]pyridin-2-yl]methyl]-6,6-dimethyl-3-azabicyclo[3.1.0]hexane-2,4-dione dihydrochloride] | < 1000 nM
CO[C@H]1CNC[C@H]1Oc1c(C)cc(Cl)cc1-c1ccnc2cc(CN3C(=O)C4C(C3=O)C4(C)C)sc12 (stereo partly drawn) [Example 388, 3-[[7-[5-chloro-2-[(3R,4S)-4-methoxypyrrolidin-3-yl]oxy-3-methyl-phenyl]thieno[3,2-b]pyridin-2-yl]methyl]-6,6-dimethyl-3-azabicyclo[3.1.0]hexane-2,4-dione dihydrochloride] | < 1000 nM
